According to patent publication US7094869B2, “Low molecular weight peptidomimetic growth hormone secretagogues” (Genentech, Inc., priority 1994, dated 2006):
pEC50: −log10 of the molar value. Non-standard residues stand in square brackets, D forms with d. Residues, ends and D or L forms follow the SMILES beside them. *: point of attachment. Tyr(3-I) = N[C@@H](Cc1ccc(O)c(I)c1)C(=O)O; dNMe2Nal = CN[C@H](Cc1ccc2ccccc2c1)C(=O)O; 2Nal = N[C@@H](Cc1ccc2ccccc2c1)C(=O)O; d2Nal = N[C@H](Cc1ccc2ccccc2c1)C(=O)O; Acetyl(4-pyridyl) = O=C(Cc1ccncc1)*; d(hPhe) = N[C@H](CCc1ccccc1)C(=O)O; NMeF = CN[C@@H](Cc1ccccc1)C(=O)O; dPhg = N[C@@H](C(=O)O)c1ccccc1; NHPhenethyl = c1ccc(CCN*)cc1; dNle = CCCC[C@@H](N)C(=O)O; dOrn = NCCC[C@@H](N)C(=O)O; Ac6c = NC1(C(=O)O)CCCCC1; Inp = O=C(O)C1CCNCC1; Ava = NCCCCC(=O)O

Biological target: rat pituitary cells (Rattus norvegicus, UniProt O08725)
Details: not given
Method: Pituitaries from ten rats were removed, the posterior pituitary discarded and the anterior pituitary placed in Hanks' Balanced Salt Solution (HBSS: without calcium chloride, w/o magnesium chloride, w/o magnesium sulfate; Gibco) containing 20 mM HEPES (Gibco) and 100 U/ml penicillin streptomycin (PS: JRH Biosciences). Under sterile conditions, pituitaries were rinsed twice then minced into small fragments with a razor blade. […] After the incubation, fragments were triturated to yield small clumps and single cells. The cells were centrifuged 1000× g for 5 min, resuspended, counted and plated at a final cell concentration of 100,000 cells/ml. Incubation media was DME low glucose media w/NaHCO3 (Gibco) containing 20 mM hepes, 100 U/ml PS and 10% FBS (Hyclone A-111-L). Cells were plated at 0.5 ml per well in 48 well plates (Falcon) and incubated at 37° C. in 5% C02 for three days. For challenges to determine release of other pituitary hormones cells were plated at 200,000 cells per ml with 2 ml per well of a Swell plate (Corning). Challenge: A (inip)bbFK-NH2 stock (or other GHRP) concentration of 1 mM was made in DMSO and diluted with warmed media approximately 30 min prior to use. The highest concentration of DMSO in media was 0.1%. Stock solutions (1 mM) of rat GHRH, somatostatin (Sigma) and GHRP antagonist HwkWfK were made fresh in media and diluted appropriately. The media used in all challenges and washing steps was DME low glucose with 20 mM Hepes, 100 U/ml PS, 10% FBS. Media was warmed to 37° C. and gassed by placing it into the incubator prior to challenge. On day three, the media was discarded and fresh media (approximately 1 ml) added for the first of three washes. After the last wash, the plate was placed back in the incubator for a 15 min pre-incubation. Then cells were washed 2× (with warmed and gassed media) and fresh 0.5 ml media were added for the second 15 min. pre-incubation. After the second pre-incubation cells were washed 2× as above and 0.5 ml of control and test solutions were added for a final 15 min incubation. After this incubation, the media were removed for subsequent GH ELISA. GH ELISA: A two-site ELISA was used to determine rat GH concentration in the media. […] After blocking and washing, standard (rat GH reference preparation: Parlow) and challenge media is diluted 1:20 prior to GH assay were added for a 1 hr room temperature incubation. STATISTICS: The mean for each group was determined and analyzed by one-way analysis of variance with a post-hoc Student-Newman-Keuls. Significance is defined as P<0.05. The EC50 was calculated using a 4-parameter curve-fit program (Kaleidagraph). Three to four independent EC50s were used to derive the mean and SEM. RIA of pituitary hormones: LH, FSH, TSH, and Prolactin were determined with commercially available kits from Amersham, and ACTH levels were determined by a RIA kit from ICN. CALCIUM FLUX EXPERIMENT: Pituitary cells were plated on fibronectin (Collaborative Research) coated two-chambered slide wells (Nunc). After four days in monolayer culture cells were rinsed three times with HBSS (Gibco) in 1% BSA and 15 mM HEPES and then incubated for 30 min at 37° C. with 5 μM Indo-1 AM (Molecular Probes, Eugene) in HBSS also containing 1% pluronic F127 (Molecular Probes). The cells were rinsed once and fresh media added for RT incubation. […] C^++ flux was imaged with a Meridian ACAS 570 using stage scanning at 21 second intervals.

rat pituitary cells, sequence (O08725 whole entry): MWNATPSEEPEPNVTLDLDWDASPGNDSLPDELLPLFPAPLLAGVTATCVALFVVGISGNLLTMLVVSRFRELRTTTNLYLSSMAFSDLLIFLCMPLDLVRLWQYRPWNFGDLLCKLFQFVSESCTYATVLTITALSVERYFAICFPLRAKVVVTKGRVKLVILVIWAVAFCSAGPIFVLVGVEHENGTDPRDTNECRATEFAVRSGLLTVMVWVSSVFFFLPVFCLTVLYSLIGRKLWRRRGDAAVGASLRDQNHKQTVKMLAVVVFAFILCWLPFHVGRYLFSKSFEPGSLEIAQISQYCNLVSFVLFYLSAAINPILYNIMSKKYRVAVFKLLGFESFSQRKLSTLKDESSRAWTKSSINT

Compound | pEC50
NCCCC[C@H](NC(=O)[C@H](Cc1ccccc1)NC(=O)[C@@H](Cc1c[nH]c2ccccc12)NC(=O)[C@@H](Cc1c[nH]c2ccccc12)NC(=O)[C@@H](N)Cc1ccc(O)cc1)C(N)=O [Y w w F K amide] (H-Y[dW][dW]FK-NH2) | 6.00

Same assay, conditions: read-out: PIT Cell EC50; Table III, formula IV compounds; GH release, 15 min incubation

Compound | pEC50
CN(C(=O)C1CCNCC1)[C@H](Cc1ccc2ccccc2c1)C(=O)N(C)[C@H](Cc1ccc2ccccc2c1)C(=O)N[C@@H](Cc1ccccc1)C(=O)N[C@@H](CCCCN)C(N)=O [(inip) nmb nmb F K amide] (H-[Inp][dNMe2Nal][dNMe2Nal]FK-NH2) | 8.85
NCCCC[C@H](NC(=O)[C@H](Cc1ccccc1)NC(=O)[C@@H](Cc1ccc2ccccc2c1)NC(=O)[C@@H](Cc1ccc2ccccc2c1)NC(=O)C1CCNCC1)C(=O)N[C@@H](Cc1ccc(O)c(I)c1)C(N)=O [(inip) b b F K Y(I) amide] (H-[Inp][d2Nal][d2Nal]FK[Tyr(3-I)]-NH2) | 9.16
NCCCC[C@H](NC(=O)[C@H](Cc1ccc(O)cc1)NC(=O)[C@@H](Cc1ccc2ccccc2c1)NC(=O)[C@@H](Cc1ccc2ccccc2c1)NC(=O)C1CCNCC1)C(N)=O [(inip) b b Y K amide] (H-[Inp][d2Nal][d2Nal]YK-NH2) | 9.70
C[C@@H](NC(=O)[C@@H](Cc1ccc2ccccc2c1)NC(=O)CCCCN)C(=O)N[C@@H](Cc1ccccc1)C(=O)N[C@@H](CCCCN)C(N)=O [(Ava) b a F K amide] (H-[Ava][d2Nal][dA]FK-NH2) | < 6.52
NCCCC[C@H](NC(=O)[C@H](Cc1ccccc1)NC(=O)[C@@H](Cc1ccc2ccccc2c1)NC(=O)[C@@H](Cc1ccc2ccccc2c1)NC(=O)Cc1ccncc1)C(N)=O [(pac) b b F K amide] ({Acetyl(4-pyridyl)}-[d2Nal][d2Nal]FK-NH2) | 7.00
C[C@@H](NC(=O)CCCCN)C(=O)N[C@H](Cc1ccc2ccccc2c1)C(=O)N[C@@H](Cc1ccccc1)C(=O)N[C@@H](CCCCN)C(N)=O [(Ava) a b F K amide] (H-[Ava][dA][d2Nal]FK-NH2) | < 6.52
CN(C)C(=O)C(Cc1ccccc1)NC(=O)[C@@H](Cc1ccc2ccccc2c1)NC(=O)[C@@H](Cc1ccc2ccccc2c1)NC(=O)C1CCNCC1 (single isomer, unassigned) [(inip) b b f dam] | 7.92
CN(C)C(=O)[C@H](Cc1ccccc1)NC(=O)[C@@H](Cc1ccc2ccccc2c1)NC(=O)[C@@H](Cc1ccc2ccccc2c1)N(C)C(=O)C1CCNCC1 [(inip) nmb b F dam] (H-[Inp][dNMe2Nal][d2Nal]F-NMe2) | 8.22
C[C@H](NC(=O)[C@@H](Cc1ccc2ccccc2c1)NC(=O)[C@@H](Cc1ccc2ccccc2c1)NC(=O)CCCCN)C(=O)N[C@@H](CCCCN)C(N)=O [(Ava) b b A K amide] (H-[Ava][d2Nal][d2Nal]AK-NH2) | < 6.82
CN(C(=O)[C@@H](Cc1c[nH]c2ccccc12)NC(=O)[C@@H](Cc1c[nH]c2ccccc12)NC(=O)[C@@H](N)Cc1c[nH]cn1)[C@@H](Cc1ccccc1)C(=O)N[C@@H](CCCCN)C(N)=O [H w w nmF K amide] (H-H[dW][dW][NMeF]K-NH2) | 7.43
CNC(=O)[C@@H](Cc1ccccc1)NC(=O)[C@@H](Cc1ccc2ccccc2c1)NC(=O)[C@@H](Cc1ccc2ccccc2c1)NC(=O)C1CCNCC1 [(inip) b b f mam] (H-[Inp][d2Nal][d2Nal][dF]-NHMe) | 8.15
NCCCCC(=O)N[C@H](Cc1ccc2ccccc2c1)C(=O)N[C@H](Cc1ccc2ccccc2c1)C(=O)N[C@@H](C(=O)N[C@@H](CCCCN)C(N)=O)c1ccccc1 [(Ava) b b (pG) K amide] (H-[Ava][d2Nal][d2Nal][dPhg]K-NH2) | < 7.00

Same assay, conditions: read-out: PIT Cell EC50; Table IV, formula III compounds; GH release, 15 min incubation

Compound | pEC50
NCCCCC(=O)N[C@H](Cc1ccc2ccccc2c1)C(=O)N[C@@H](Cc1ccccc1)C(=O)N[C@@H](CCCCN)C(N)=O [(Ava) b F K amide] (H-[Ava][d2Nal]FK-NH2) | < 6.52
NC(=O)[C@H](Cc1ccccc1)NC(=O)[C@@H](Cc1ccccc1)NC(=O)[C@@H](Cc1ccc2ccccc2c1)NC(=O)C1CCNCC1 [(inip) b f F amide] (H-[Inp][d2Nal][dF]F-NH2) | 7.10
NCCCCCNC(=O)[C@@H](Cc1ccc2ccccc2c1)NC(=O)[C@@H](Cc1ccc2ccccc2c1)NC(=O)C1CCNCC1 [(inip) b b pam] | 7.37
NCCCCC(=O)N[C@H](Cc1ccc2ccccc2c1)C(=O)N[C@H](Cc1ccc2ccccc2c1)C(=O)NCCc1ccccc1 [(Ava) b b fem] (H-[Ava]-[d2Nal]-[d2Nal]-NHPhenethyl) | < 6.70
CCCC[C@@H](NC(=O)[C@@H](Cc1ccc2ccccc2c1)NC(=O)C1CCNCC1)C(=O)N[C@@H](Cc1ccccc1)C(N)=O [(inip) b nl F amide] (H-[Inp][d2Nal][dNle]F-NH2) | 7.14
CCCC[C@@H](NC(=O)C1CCNCC1)C(=O)N[C@H](Cc1ccc2ccccc2c1)C(=O)N[C@@H](Cc1ccccc1)C(N)=O [(inip) nl b F amide] (H-[Inp][dNle][d2Nal]F-NH2) | 7.00
NC(=O)[C@H](Cc1ccccc1)NC(=O)C1(NC(=O)[C@@H](Cc2ccc3ccccc3c2)NC(=O)C2CCNCC2)CCCCC1 [(inip) b Abx F amide] (H-[Inp][d2Nal][Ac6c]F-NH2) | < 7.00
NCCC[C@@H](NC(=O)[C@@H](Cc1ccc2ccccc2c1)NC(=O)[C@@H](Cc1ccc2ccccc2c1)NC(=O)C1CCNCC1)C(N)=O [(inip) b b o amide] (H-[Inp][d2Nal][d2Nal][dOrn]-NH2) | 8.00
NC(=O)[C@H](Cc1ccccc1)NC(=O)[C@@H](Cc1ccc2ccccc2c1)NC(=O)[C@@H](CCc1ccccc1)NC(=O)C1CCNCC1 [(inip) hf b F amide] (H-[Inp][d(hPhe)][d2Nal]F-NH2) | 7.57

Same assay, conditions: read-out: PIT Cell EC50; Table V, formula II compounds; GH release, 15 min incubation

Compound | pEC50
O=C(N[C@H](Cc1ccc2ccccc2c1)C(=O)N[C@H](Cc1ccc2ccccc2c1)C(=O)O)C1CCNCC1 [(inip) b b acid] (H-[Inp]-[d2Nal]-[d2Nal]-OH) | 7.09
CC(=O)NC[C@@H](Cc1ccc2ccccc2c1)N(C)C(=O)[C@@H](Cc1ccc2ccccc2c1)NC(=O)C1CCNCC1 [(inip) b mbm Ac] | 7.05
CN(C(=O)[C@@H](Cc1ccc2ccccc2c1)NC(=O)C1CCNCC1)[C@@H](CN=[N+]=[N-])Cc1ccc2ccccc2c1 [(inip) b miz] | 7.92
NC(=O)[C@@H](Cc1ccc2ccccc2c1)NC(=O)[C@@H](Cc1ccc2ccccc2c1)NC(=O)C1CCNCC1 [(inip) b b amide] (H-[Inp]-[d2Nal]-[d2Nal]-NH2) | 7.75
NCCCCC(=O)N[C@H](Cc1ccc2ccccc2c1)C(=O)N[C@@H](CO)Cc1ccc2ccccc2c1 [(Ava) b bol] | 6.72
CN(C(=O)[C@@H](Cc1ccc2ccccc2c1)NC(=O)C1CCN(C(=O)OC(C)(C)C)CC1)[C@@H](CN)Cc1ccc2ccccc2c1 [Boc (inip) b mbm] | 7.89
O=C(N[C@H](Cc1ccc2ccccc2c1)C(=O)N[C@H](CO)Cc1ccc2ccccc2c1)C1CCNCC1 [(inip) b Bol] | 7.00

Same assay, conditions: read-out: PIT Cell EC50; Table VI, retroinverso compounds of formula V; GH release, 15 min incubation

Compound | pEC50
NCCCCC(=O)N[C@H](Cc1ccccc1)C(=O)N[C@@H](Cc1ccc2ccccc2c1)C(=O)N[C@@H](Cc1ccc2ccccc2c1)C(=O)N[C@@H](CCCCN)C(N)=O [(Ava) f B B K amide, (5-Aminovaleryl)-DPhe-βNal-βNal-Lys-amide] (H-[Ava][dF][2Nal][2Nal]K-NH2) | 7.44

Same assay, conditions: read-out: “Pit” Cell EC50; Table II, prior art compounds; GH release, 15 min incubation

Compound | pEC50
C[C@H](N)C(=O)N[C@@H](Cc1c[nH]cn1)C(=O)N[C@H](Cc1ccc2ccccc2c1)C(=O)N[C@@H](C)C(=O)N[C@@H](Cc1c[nH]c2ccccc12)C(=O)N[C@H](Cc1ccccc1)C(=O)N[C@@H](CCCCN)C(N)=O [GHRP 1, Ala-His-D βNal-Ala-Trp-D Phe-Lys-NH2, reference compound] (H-AH[d2Nal]AW[dF]K-NH2) | 8.85
